{"source": "patent US9121022B2", "about": "“Method for controlling herbicide-resistant plants” (priority 2010, dated 2015)", "tested_on": "endogenous Nicotiana benthamiana Argonaute-1 (AGO1) gene", "test": "AGO1 anti-sense polynucleotides with or without PDS anti-sense polynucleotide, systemic bleaching (Example 33)", "type": "in vivo", "conditions": "PDS 25 nanomoles; AGO1 50 nanomoles of each of 14 polynucleotides; applied on separate leaves", "text": "A second set of experiments was designed to investigate the effects of silencing a component of the endogenous RNAi silencing pathway in a plant. Argonaute (AGO) proteins are components of the RNA-induced silencing complex (RISC) which binds small RNAs in the RNAi silencing process. Suppression of Argonaute would be expected to reduce the observed phenotypic effect caused by an RNAi silencing process. AGO1 anti-sense polynucleotides with the sequences […] (HL510, SEQ ID NO:300), […] (HL511, SEQ ID NO:301), […] (HL512, SEQ ID NO:302), […] (HL513, SEQ ID NO:303), […] (HL514, SEQ ID NO:304), […] (HL515, SEQ ID NO:305), […] (HL516, SEQ ID NO:306), […] (HL517, SEQ ID NO:307), […] (HL518, SEQ ID NO:308), […] (HL519, SEQ ID NO:309), […] (HL520, SEQ ID NO:310), […] (HL521, SEQ ID NO:311), […] (HL522, SEQ ID NO:312), […] (HL523, SEQ ID NO:313) were designed for the endogenous Nicotiana benthamiana Argonaute-1 (AGO1) gene, based on two Nicotiana benthamiana AGO1-2 partial cDNA sequences, • […] […] […] […] […] […] […] […] […] […] […] […] […] […] […] […] […] […] […] […] […] […] […] […] […] […] […] […] […] […] […] […] […] […] […] […] […] […] […] […] […] […] […] GC (SEQ ID NO:314) and • […] […] […] […] […] […] […] […] […] […] […] […] […] […] […] […] […] […] […] […] […] […] […] […] […] […] […] […] […] […] […] […] […] […] […] […] […] […] […] […] […] […] […] […] […] […] […] […] (SEQ ID NO:315).\nNicotiana benthamiana plants were treated using a procedure similar to that described in Example 12. […]", "data": [{"sequence": "CATCTCCTTTAATTGTACTGC (DNA, backbone not given here) [PDS 21-mer anti-sense ssDNA]", "values": [{"measurement": "systemic bleaching / difference to buffer", "result": "displayed systemic bleaching"}]}]}
